From publication PMC11073428, “The activity of pyrazolo[4,3-e][1,2,4]triazine and pyrazolo[4,3-e]tetrazolo[1,5-b][1,2,4]triazine sulphonamide derivatives in monolayer and spheroid breast cancer cell cultures” (Journal of Enzyme Inhibition and Medicinal Chemistry, 2024)

Key:
Type in all cases: cell-based, human
[1] = test system: MDA-MB-231 breast cancer cells; experiment: Autophagy Assay, Red, flow cytometry, MDA-MB-231
Protocol: The effect of novel compound 3b at 0.25 µM and 0.5 µM concentration on the induction of autophagy in MCF-7 and MDA-MB-231 pre-treated 1 h with or not autophagy inhibitor 3-MA for 1 h (3-methyladenine, Sigma-Aldrich, St. Louis, MO) at 1 mM concentration[29] was assessed by ICT’s Autophagy Assay, Red using a flow cytometer. The test was performed as previously. Briefly, cells were washed with PBS and suspended in 490 µL of PBS. To each probe, 10 µL of diluted Autophagy Probe, Red solution was added. Prepared samples were incubated at 37 °C for 60 min. Following incubation, cells were suspended in diluted cellular assay buffer and centrifuged. Then, supernatant was removed, and cells were resuspended in diluted cellular assay buffer and centrifuged again. This step was repeated three times. Finally, cell pellet was resuspended in 0.5 mL of diluted cellular assay buffer. The analysis was performed with a flow cytometer (excitation/emission 590 nm/620 nm).

[2] = test system: caspase 9 in MDA-MB-231 cells; experiment: Activity of caspase 9, MDA-MB-231; settings: MDA-MB-231, 0.5 µM, 24 h
Protocol: MCF-7 and MDA-MB-231 cells were plated in six-well plates at density 1 × 10^6 and cultured in DMEM for 24 h. […] Then to identify the involvement of caspase family in inducing apoptosis, cells were pre-treated with Z-VAD-FMK (100 µM) 2 h before adding compounds[28]. The activation of caspases 9, 10, and 3/7 was detected as described before.

[3] = test system: Bax in MDA-MB-231 cells; experiment: Anti-Bax antibody flow cytometry, MDA-MB-231; settings: 24 h
Protocol: (§1) To evaluate the molecular mechanism of induction of apoptosis of tested compounds, the level of p53, NF-κB, mTOR, Bax, and beclin-1 was measured using appropriate antibody according to the manufacturer’s instruction. In brief, tryspinised cells were centrifuged, then supernatant was discarded, and cells were suspended in 4% FA (formaldehyde). Prepared samples were incubated 15 min at RT. Following incubation, the 2.5 mL PBS was added to each sample and centrifuged. Then, supernatant was discarded, and cells were resuspended in 90% ice-cold methanol to perform permeabilisation and left for 1 h in ice. To remove methanol, cells were rinsed with excess PBS by centrifugation. Following centrifugation, the supernatant was discarded. Then, cells were resuspended in 100 µL of appropriate diluted (1:100 in PBS) antibody conjugate (p53 (7F5) Rabbit mAb – Alexa Fluor 488 Conjugate #5429 Cell Signalling Technology, Danvers, MA; NF-κB p65 (D14E12) XP Rabbit mAb – Alexa Fluor 647 Conjugate #8801 Cell Signalling Technology, Danvers, MA; mTOR (7C10) Rabbit mAB – Alexa Fluor 647 #5048 Cell Signalling Technology, Danvers, MA; FITC Anti-Bax antibody (T22-A) #ab139543, Abcam, Cambridge, UK) and incubated 1 h in the dark at RT. Afterwards, cells were washed by centrifugation in 2 mL of incubation buffer. Finally, supernatant was removed and 300 µL PBS was added to each sample and pipetted. The analysis was performed by flow cytometry (BD FACSCanto II, Becton Dickinson Biosciences Systems, San Jose, CA) using FACSDiva software ver. 6.1.3.

[4] = test system: MDA-MB-231 spheroids; experiment: 3D spheroid culture, MDA-MB-231; settings: 0.25 µM and 0.5 µM
Protocol: The 3D cell culture was carried out with 6-Well Bio-Assembler Kit in accordance with the manufacturer’s instructions (Greiner Bio-One GmbH, Frickenhausen, Germany). First, MCF-7 and MDA-MB-231 were cultured in 2D using procedure and supplied to 80% confluency and treated with nanoshuttle at concentration of 1 µL/10 000 cell and incubated overnight. Following incubation, the medium was removed, and the cells were detached by trypsin–EDTA solution and resuspended in DMEM. The cells were counted using Scepter 2.0 Handheld Automated Cell Counter (Merck, Darmstadt, Germany) and plated at the concentration 1 × 10^6 cells per well in six-well plate. Then, cells were gently tilted in the flask to evenly distribute the nanoparticle and incubated (37 °C, 5% CO2, 95–98% humidity) for 1 h with magnet on the top of the plate. The cells self-assemble to spheroids. The obtained 3D cell culture was incubated until analysis.
The visualisation of the morphological changes in 3D cell culture of MCF-7 and MDA-MB-231 was evaluated using microscope (Nikon Eclipse Ti, Tokyo, Japan).
The mean ± standard deviation (SD) for all data is presented. One-way and two-way analysis of variance (ANOVA) was conducted followed by Dunnett’s test. GraphPad 8.0.1 Prism software (GraphPad Software, San Diego, CA) was used for calculation. The analysis of spheroids area was carried out using ImageJ software from the NIH (Bethesda, MD).

[5] = test system: p53 in MCF-7 cells; experiment: Anti-p53 antibody flow cytometry, MCF-7; settings: MCF-7, 0.25 µM and 0.5 µM, 24 h
Protocol: as §1, with “The analysis was performed by flow cytometry (BD FACSCanto II, Becton Dickinson Biosciences Systems, San Jose, CA) using FACSDiva software ver. 6.1.3.” left out

[6] = test system: NF-κB in MCF-7 cells; experiment: Anti-NF-κB antibody flow cytometry, MCF-7; settings: 24 h, control 97.2 ± 0.6%
Protocol: as §1, with “The analysis was performed by flow cytometry (BD FACSCanto II, Becton Dickinson Biosciences Systems, San Jose, CA) using FACSDiva software ver. 6.1.3.” left out

[7] = test system: NF-κB in MDA-MB-231 cells; experiment: Anti-NF-κB antibody flow cytometry, MDA-MB-231; settings: 24 h
Protocol: as §1, with “The analysis was performed by flow cytometry (BD FACSCanto II, Becton Dickinson Biosciences Systems, San Jose, CA) using FACSDiva software ver. 6.1.3.” left out

[8] = test system: ROS in MDA-MB-231 cells; experiment: Total ROS activity, flow cytometry, MDA-MB-231; settings: for cells with ROS: 24 h
Protocol: In brief, cells were washed two times with cold PBS solution and incubated in a solution of ROS Green dye in Assay Buffer and incubated for 1 h in optimal cell growth parameters, protected from light. After incubation, cells were washed with assay buffer. Subsequently, fluorescence emission intensities at 490 nm excitation and 520 nm emission were recorded in 500 μL assay buffer using flow cytometer BD FACSCanto II flow cytometer and FACSDiva software (BD Biosciences Systems, San Jose, CA).

[9] = test system: mTOR in MCF-7 cells; experiment: Anti-mTOR antibody flow cytometry, MCF-7; settings: MCF-7, 0.25 µM and 0.5 µM, 24 h
Protocol: as §1, with “The analysis was performed by flow cytometry (BD FACSCanto II, Becton Dickinson Biosciences Systems, San Jose, CA) using FACSDiva software ver. 6.1.3.” left out

[10] = test system: p53 in MDA-MB-231 cells; experiment: Anti-p53 antibody flow cytometry, MDA-MB-231; settings: MDA-MB-231, 0.25 µM and 0.5 µM, 24 h
Protocol: as §1, with “The analysis was performed by flow cytometry (BD FACSCanto II, Becton Dickinson Biosciences Systems, San Jose, CA) using FACSDiva software ver. 6.1.3.” left out

`Cc1nn(-c2ccc(S(=O)(=O)N[C@@H](CO)Cc3ccccc3)cc2)c2nn3nnnc3nc12` [Compound 3b, (R)-N-(1-hydroxy-3-phenylpropan-2-yl)-4-(7-methyl-5H-pyrazolo[4,3-e]tetrazolo[1,5-b][1,2,4]triazin-6-yl)benzenesulfonamide] was tested, and the “autophagic cells (rate of autophagosomes)” value ([1]; MDA-MB-231, 0.5 µM, 24 h) was 47.1 ± 0.6%, the “autophagic cells in presence of 3-MA” value ([1]; MDA-MB-231, 3b 0.5 µM + 3-MA (1 mM, 1 h pre-treatment)) was 25.9 ± 4.7% and the “cells with active caspase 9” value [2] was 55.9 ± 1.2%. For the same molecule, the “cells with active Bax” value ([3]; MDA-MB-231, 0.25 µM) was 6.3 ± 0.4%, the “cells with active Bax” value ([3]; MDA-MB-231, higher concentration (0.5 µM)) was 16.9 ± 3.7% and the “effect on spheroid formation (in words)” value [4] was “slower formation of spheroids compared to untreated cells”. The “effect on p53 (in words)” value [5] was “activates p53”, the “cells with active NF-κB” value ([6]; MCF-7, 0.25 µM) was 25.5 ± 4.5% and the “cells with active NF-κB” value ([6]; MCF-7, 0.5 µM) was 19.8 ± 4.4%. For the same molecule, the “cells with active NF-κB” value ([7]; MDA-MB-231, 0.25 µM) was 94.8 ± 0.6%, the “cells with active NF-κB” value ([7]; MDA-MB-231, 0.5 µM) was 89.6 ± 4.1% and the “cells with ROS” value ([8]; MDA-MB-231, 0.25 µM) was 7.0 ± 0.6%. For the same molecule, the “increase of ROS level compared to control” value ([8]; MDA-MB-231, 0.5 µM) was “four”, the “cells with ROS” value ([8]; MDA-MB-231, 0.5 µM) was 9.4 ± 0.7% and the “effect on cells with active mTOR (in words)” value [9] was “decrease in the number of cells with active mTOR”. For the same molecule, the “effect on p53 (in words)” value [10] was “activates p53”.
